Measured values from patent publication US20150148256A1, “BIOLUMINESCENCE IMAGING-BASED SCREENING ASSAY AND INHIBITORS OF ABCG2” (THE JOHNS HOPKINS UNIVERSITY, priority 2008, published 2015).
Where a name gives a salt, the structure may show the parent alone.

Molecular target: T1, ABCG2 (Homo sapiens, UniProt Q9UNQ0)
T1 sequence (Q9UNQ0 1-655): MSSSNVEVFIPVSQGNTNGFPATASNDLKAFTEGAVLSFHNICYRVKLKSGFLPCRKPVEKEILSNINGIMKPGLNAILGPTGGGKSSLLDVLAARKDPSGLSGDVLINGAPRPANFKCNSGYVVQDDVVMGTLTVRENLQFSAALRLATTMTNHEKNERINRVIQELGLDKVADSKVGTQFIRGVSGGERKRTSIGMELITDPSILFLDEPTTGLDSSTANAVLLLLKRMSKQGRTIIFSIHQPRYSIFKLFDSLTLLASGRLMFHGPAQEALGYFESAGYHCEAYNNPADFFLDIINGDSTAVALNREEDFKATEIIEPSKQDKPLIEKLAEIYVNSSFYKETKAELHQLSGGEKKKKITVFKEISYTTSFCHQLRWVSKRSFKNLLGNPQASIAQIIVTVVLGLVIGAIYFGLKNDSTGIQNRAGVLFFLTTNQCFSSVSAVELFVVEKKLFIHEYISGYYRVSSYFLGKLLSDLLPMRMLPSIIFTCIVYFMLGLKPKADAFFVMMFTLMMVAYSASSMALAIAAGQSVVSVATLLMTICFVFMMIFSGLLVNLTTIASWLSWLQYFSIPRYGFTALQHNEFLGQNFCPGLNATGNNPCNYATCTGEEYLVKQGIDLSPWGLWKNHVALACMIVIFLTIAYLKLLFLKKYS
Assay: Bioluminescence imaging (BLI) assay in HEK293/ABCG2/fLuc cells
Conditions: not given
Method: HEK293/ABCG2/fLuc cells were plated into 96-well plates at a density of 4×10^4 cells/100 μL per well and were allowed to attach overnight. The following day, 10 μL of each compound or the control solvent was transferred from a compound library in a 96-well, high-throughput format into the wells using a multichannel pipette. […] Images were taken every 5 minutes for ˜1 h. Light output from each well was quantified at the 40 min time point after initiation of imaging, and the signal-to-background (S/B) ratio of the light output from each compound divided by that from the control well was calculated. This S/B ratio serves as an indicator of the potency of ABCG2 inhibition, the mechanism by which BLI signal is enhanced.
Images were taken every 5 min for ˜1 h, and light output from each well at the 40 min time point was chosen for quantification. The SB ratio of the light output from each compound divided by that from the control well was calculated. This ratio was used as an indicator of the potency of ABCG2 inhibition, the mechanism by which BLI signal is enhanced.
The BLI signal-enhancing effect of selected ABCG2 inhibitors was evaluated within the range of 0.001 μM-100 μM, with HEK293/ABCG2/fLuc cells and 50 μg/mL D-luciferin. The data obtained at 40 min after imaging commencement were chosen arbitrarily to be plotted (FIG. 3).

Compound | Fold (BLI enhancement, S/B ratio over control) [fold] | BLI signal enhancement at lower concentrations | IC50 [µM]
Cl.Cl.OCCN1CCN(CCCN2c3ccccc3Sc3ccc(C(F)(F)F)cc32)CC1 [flufenazine hydrochloride] | 4.3 |  | 
CNc1ccc2oc(C[C@H]3O[C@@]4(CC[C@H]3C)O[C@H]([C@H](C)C(=O)c3ccc[nH]3)[C@H](C)C[C@H]4C)nc2c1C(=O)O [calcimycin] |  | enhance BLI signal minimally | 
Cc1cc(C(C)(C)CC(C)(C)C)ccc1OCCOCC[N+](C)(C)Cc1ccccc1.[Cl-] [methylbenzethonium chloride] | 2.1 |  | 
CS(=O)(=O)O.O=C(O[C@H]1C[C@H]2CC3C[C@@H](C1)N2CC3=O)c1c[nH]c2ccccc12 [dolasetron mesylate] | 3.0 |  | 
COc1cc2nc(N3CCN(C(=O)C4COc5ccccc5O4)CC3)nc(N)c2cc1OC (stereo not drawn) [doxazosin mesylate] |  |  | 8

Same assay, conditions: BLI screen, approximately 17 μM, 40 min

Compound | BLI signal enhancement [fold]
COc1ccc(-c2cc(=O)c3c(O)cc(O)cc3o2)cc1 [acacetin] | 1.8

Same assay, conditions: Table 2; HEK293/ABCG2/fLuc cells, compound approximately 17 μM, ~50 μg/mL D-luciferin, 40 min time point

Compound | Fold (BLI enhancement, S/B ratio over control) [fold]
estrone hemisuccinate | 5.4
hesperidin methyl chalcone | 2.1
COc1ccc2c3c([nH]c2c1)C(C)=NCC3 [harmaline] | 8.8
COc1cc(-c2oc3cc(O)cc(O)c3c(=O)c2O)ccc1O [isorhamnetin] | 7.0
O=C(Nc1ccccc1)c1ccccc1O [salicylanilide] | 2.2

Same assay, conditions: Table 4; approximately 17 μM, 40 min time point

Compound | Fold (BLI enhancement), previously unknown compounds [fold]
estrone hemisuccinate | 5.4
COc1ccc2c3c([nH]c2c1)C(C)=NCC3 [harmaline] | 8.8
COc1cc(-c2oc3cc(O)cc(O)c3c(=O)c2O)ccc1O [isorhamnetin] | 7.0

Same assay, conditions: Table 5; approximately 17 μM, 40 min time point

Compound | fold (BLI enhancement), additional previously known ABCG2 inhibitors [fold]
COc1ccc(-c2cc(=O)c3c(O)cc(O)cc3o2)cc1 [acacetin] | 1.8

Same assay, conditions: human

Compound | Fold (BLI enhancement, S/B ratio over control) [fold]
CC1=NCCc2c1[nH]c1cc(O)ccc21.Cl [harmalol hydrochloride] | 2.9
CC[C@@H](C(=O)[C@@H](C)[C@@H](O)[C@H](C)CCc1ccc(C)c(O)c1C(=O)O)[C@H]1O[C@](CC)([C@H]2CC[C@](O)(CC)[C@H](C)O2)C[C@@H]1C [lasalocid sodium] | 2.7
Cc1cc(O)c2c(=O)c3c(O)cc(O)c4c5c(O)cc(O)c6c(=O)c7c(O)cc(C)c8c1c2c(c34)c(c78)c65 [hypericin] | 3.3

Same assay, conditions: human, 40 min, 17 μM

Compound | Fold (BLI enhancement), previously unknown compounds [fold] | Fold (BLI enhancement, S/B ratio over control) [fold] | Fold (BLI enhancement), known compounds [fold] | fold (BLI enhancement), additional previously known ABCG2 inhibitors [fold] | BLI signal enhancement [fold]
CC(C)(C(=O)c1cccnc1)c1cccnc1 [metyrapone, 2-methyl-1,2-dipyridin-3-yl-propan-1-one] | 6.3 | 6.3 |  |  | 
CC(C)C(=O)Nc1ccc([N+](=O)[O-])c(C(F)(F)F)c1 [flutamide] | 6.1 | 6.1 |  |  | 
COc1cc2ncnc(Nc3ccc(F)c(Cl)c3)c2cc1OCCCN1CCOCC1 [gefitinib] |  | 19.0 | 19.0 |  | 
CC(C)c1nc(N(C)S(C)(=O)=O)nc(-c2ccc(F)cc2)c1/C=C/[C@@H](O)C[C@@H](O)CC(=O)O [rosuvastatin] |  | 3.9 |  |  | 
COC(=O)Nc1nc2ccc([S+]([O-])c3ccccc3)cc2[nH]1 (stereo not drawn) [oxfendazole] |  | 2.1 |  |  | 
Cc1c(O)cccc1C(=O)N[C@@H](CSc1ccccc1)[C@H](O)CN1C[C@H]2CCCC[C@H]2C[C@H]1C(=O)NC(C)(C)C [nelfinavir mesylate] |  | 6.1 | 6.1 |  | 
COc1cc(O)c2c(c1)C(=O)c1cc(C)cc(O)c1C2=O [physcion] |  | 2.1 |  |  | 
CC(C)=CCC[C@]1(C)C=Cc2c(O)c3c(c(CC=C(C)C)c2O1)O[C@]12C(=C[C@@H]4C[C@H]1C(C)(C)O[C@@]2(C/C=C(/C)C(=O)O)C4=O)C3=O [gambogic acid] | 6.0 | 6.0 |  |  | 
CCN(CC)CCNc1ccc(CO)c2sc3ccccc3c(=O)c12 [hycanthone] |  | 2.5 |  |  | 
CC(=O)c1ccc2c(c1)N(CCCN1CCC(CCO)CC1)c1ccccc1S2 [piperacetazine] | 5.8 | 5.8 |  |  | 
CCC(=O)O[C@H]1CC[C@H]2[C@@H]3CCc4cc(O)ccc4[C@H]3CC[C@]12C [estradiol propionate] |  | 2.6 |  |  | 
Cc1ccc(-c2cc(C(F)(F)F)nn2-c2ccc(S(N)(=O)=O)cc2)cc1 [celecoxib] |  | 2.2 |  |  | 
C[C@]12CC[C@@H]3c4ccc(O)cc4CC[C@H]3[C@@H]1CCC2=O [estrone] |  |  |  | 4.1 | 
O=C1c2ccc(O)c(O)c2C(=O)c2c(O)ccc(O)c21 [quinalizarin] |  | 3.0 |  |  | 
COc1ccc(/C=C/C(=O)c2ccc(OC)cc2OC)cc1 [metochalcone] |  | 2.8 |  |  | 
CC(=O)OCC(=O)[C@@]1(O)[C@H](C)C[C@H]2[C@@H]3CCC4=CC(=O)C=C[C@]4(C)[C@@]3(F)[C@@H](O)C[C@@]21C [dexamethasone acetate] |  | 2.2 |  |  | 

Compound | Fold (BLI enhancement), previously unknown compounds [fold] | Fold (BLI enhancement, S/B ratio over control) [fold] | Fold (BLI enhancement), known compounds [fold] | fold (BLI enhancement), additional previously known ABCG2 inhibitors [fold] | BLI signal enhancement [fold]
Cc1cc(O)cc(C)c1Cl [chloroxylenol] |  | 2.4 |  |  | 
CC(C)(C)c1ccc(C(O)CCCN2CCC(C(O)(c3ccccc3)c3ccccc3)CC2)cc1 (stereo not drawn) [terfenadine] |  | 4.2 |  |  | 
Cc1ccc(C(=O)C(C)CN2CCCCC2)cc1 (stereo not drawn) [tolperisone hydrochloride] |  | 2.1 |  |  | 
CCCCC(=O)O[C@]1(C(=O)CO)[C@@H](C)C[C@H]2[C@@H]3CCC4=CC(=O)C=C[C@]4(C)[C@@]3(F)[C@@H](O)C[C@@]21C [betamethasone valerate] |  | 2.6 |  |  | 
O=c1c(O)c(-c2ccc(O)cc2)oc2cc(O)cc(O)c12 [kaempferol] |  | 4.3 |  |  | 
CCOC(=O)Nc1ccc2c(c1)N(C(=O)CCN1CCOCC1)c1ccccc1S2 [moricizine hydrochloride] |  | 2.3 |  |  | 
CC(C)(C)NC(=O)[C@@H]1C[C@@H]2CCCC[C@@H]2CN1C[C@@H](O)[C@H](Cc1ccccc1)NC(=O)[C@H](CC(N)=O)NC(=O)c1ccc2ccccc2n1 [saquinavir mesylate] |  | 4.9 |  | 4.9 | 
COc1cc2nc(N3CCN(C(=O)C4COc5ccccc5O4)CC3)nc(N)c2cc1OC (stereo not drawn) [doxazosin mesylate] |  |  |  |  | 16
Fc1ccc(C(c2ccc(F)cc2)N2CCN(C/C=C/c3ccccc3)CC2)cc1 [flunarizine hydrochloride] |  | 2.9 |  |  | 
O=C1C(O)=C([C@H]2CC[C@H](c3ccc(Cl)cc3)CC2)C(=O)c2ccccc21 [atovaquone] |  | 3.5 |  |  | 
O=C(O)c1cc(O)c2c(c1)C(=O)c1cccc(O)c1C2=O [rhein] |  | 3.1 |  |  | 
COc1c2occc2c(OC)c2c(=O)cc(C)oc12 [khellin] |  | 3.4 |  |  | 
O=C(Nc1ccccc1)OCC(CN1CCCCC1)OC(=O)Nc1ccccc1 (stereo not drawn) [diperodon hydrochloride] |  | 2.6 |  |  | 
Clc1ccc(COC(Cn2ccnc2)c2ccc(Cl)cc2Cl)cc1 (stereo not drawn) [econazole] |  | 2.5 |  |  | 
C=C1C[C@@H]2[C@H](CC[C@]3(C)C(=O)CC[C@@H]23)[C@@]2(C)C=CC(=O)C=C12 [exemestane] |  | 2.1 |  |  | 

System: ABCG2-overexpressing NCI-H460/MX20 cells
Assay: not given
Conditions: H460/MX20 cells with MTX

Compound | MTX (mitoxantrone resensitization assay)
CC(C)(C(=O)c1cccnc1)c1cccnc1 [metyrapone, 2-methyl-1,2-dipyridin-3-yl-propan-1-one] | Y
CC(C)C(=O)Nc1ccc([N+](=O)[O-])c(C(F)(F)F)c1 [flutamide] | Y
acetophenazine maleate | Y

Same assay, conditions: after two days of incubation (data not shown)

Compound | resensitization of H460/MX20 cells to MTX
CCCCCCCCCCCCOCCOCCOCCOCCO [brij, Brij 30] | resensitize H460/MX20 cells to MTX significantly
